How the values were obtained:
[1] = test system: sebaceous glands; test: Activity of PPAR activators on the size of sebaceous glands, daily topical application to rat back skin; type: in vivo, female Fuzzy or OFA rats; conditions: once daily 4 weeks, control (acetone) = 1.00
Protocol: The evaluation of the activity of the compounds according to the invention is performed by daily topical application (once a day, weekends included) to the skin of the back of female Fuzzy or OFA rats, for 4 weeks. 30 animals of 9/10 weeks old were divided into groups of 6 animals.
The evaluation method entails weighing the animals at the start and end of the test and in evaluating the size of the sebaceous glands on epidermal leaflets.
The animals are euthanized and the treated area (back) is then shaved and defatted. The 8 mm biopsy samples are then incubated in 1 M NaBr. After separating out the epidermis, photographs are taken of the sebaceous glands and the images obtained are then analyzed using the Tina software (quantification of the area of the sebaceous glands, arbitrary area unit [mm^2]), version 2.09 g sold by Raytest GmbH.
The statistical analysis is performed according to Student's t test (XL software sold by Microsoft)
The results are expressed as the mean of the inductions (“Mean RI”) with the value of the standard error of the mean (“SEM”).
Student's t test (“stat”): NS not significant • *p<0.05 • **p<0.01 • ***p<0.001

[2] = target: T1, PPAR gamma (Homo sapiens, UniProt P37231); test: PPAR transactivation test, PPAR gamma (HeLN reporter cells); type: cell-based; conditions: luciferase reporter, Gal-hPPAR gamma, n.a. means not active, read-out: PPAR gamma Kd app
T1 sequence (P37231 238-505 limits assumed): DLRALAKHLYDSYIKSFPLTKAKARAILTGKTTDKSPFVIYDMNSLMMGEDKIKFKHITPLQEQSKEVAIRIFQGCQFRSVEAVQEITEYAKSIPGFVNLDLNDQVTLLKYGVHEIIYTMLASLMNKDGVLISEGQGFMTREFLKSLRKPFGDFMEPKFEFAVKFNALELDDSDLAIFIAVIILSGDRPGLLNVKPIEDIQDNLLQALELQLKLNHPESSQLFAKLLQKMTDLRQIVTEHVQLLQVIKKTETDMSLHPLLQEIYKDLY
Protocol: (§1) Activation of the PPAR receptors with an agonist (activator) in HeLN cells leads to the expression of a reporter gene, luciferase, which, in the presence of a substrate, generates light. The modulation of the PPAR receptors is measured by quantifying the luminescence produced after incubating the cells in the presence of a reference agonist. The ligands displace the agonist from its site. The measurement of the activity is performed by quantifying the light produced. This measurement makes it possible to determine the modulatory activity of the compounds according to the invention by determining the constant that represents the affinity of the molecule for the PPAR receptor. This value can fluctuate according to the basal activity and the expression of the receptor: it is referred to as Kd apparent (KdApp in nM).
(§2) Measurements are also taken for the total agonist controls with the same products.
(§3) The HeLN cell lines used are stable transfectants comprising the plasmids ERE-βGlob-Luc-SV-Neo (reporter gene) and PPAR (α, δ, γ) Gal-hPPAR. These cells are inoculated in 96-well plates at a rate of 10,000 cells per well in 100 µl of DMEN medium without phenol red and supplemented with 10% defatted calf serum. The plates are then incubated at 37° C. and 7% CO2 for 16 hours.
(§4) The various dilutions of the test products and of the reference ligand are added in a proportion of 5 µl per well. The plates are then incubated for 18 hours at 37° C., 7% CO2. The culture medium is removed by upturning and 100 μl of a 1:1 PBS/luciferin mixture are added to each well. After 5 minutes, the plates are read using a luminescence reader.

[3] = target: T2, PPARs delta (Homo sapiens, UniProt Q03181); test: PPAR transactivation test, PPAR delta (HeLN reporter cells); type: cell-based; conditions: luciferase reporter, Gal-hPPAR delta, n.a. means not active, read-out: PPARs delta Kd app
T2 sequence (Q03181 171-441 limits assumed): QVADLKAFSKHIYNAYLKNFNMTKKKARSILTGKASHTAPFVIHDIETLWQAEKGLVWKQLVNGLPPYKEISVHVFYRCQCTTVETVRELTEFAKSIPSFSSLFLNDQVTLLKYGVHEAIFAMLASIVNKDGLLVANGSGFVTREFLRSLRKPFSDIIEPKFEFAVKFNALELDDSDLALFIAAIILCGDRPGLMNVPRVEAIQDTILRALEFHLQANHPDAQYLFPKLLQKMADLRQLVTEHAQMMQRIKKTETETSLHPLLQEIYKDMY
Protocol: as §1, §2, §3, §4

[4] = target: T3, PPAR alpha (Homo sapiens, UniProt Q07869); test: PPAR transactivation test, PPAR alpha (HeLN reporter cells); type: cell-based; conditions: luciferase reporter, Gal-hPPAR alpha, n.a. means not active, read-out: PPAR alpha Kd app
T3 sequence (Q07869 200-468 limits assumed): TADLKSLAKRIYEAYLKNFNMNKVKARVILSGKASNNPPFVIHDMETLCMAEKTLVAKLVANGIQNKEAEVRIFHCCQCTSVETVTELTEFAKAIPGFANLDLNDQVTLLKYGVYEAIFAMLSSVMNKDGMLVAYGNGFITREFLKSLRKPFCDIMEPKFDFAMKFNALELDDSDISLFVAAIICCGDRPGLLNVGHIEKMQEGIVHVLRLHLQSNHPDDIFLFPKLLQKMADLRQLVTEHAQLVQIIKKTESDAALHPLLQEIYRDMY
Protocol: as §1, §2
as §3, with “The plates are then incubated at 37° C. and 7% CO2 for 16 hours.” left out
The various dilutions of the test products and of the reference ligand are added in a proportion of 5 µl per well. […] After 5 minutes, the plates are read using a luminescence reader.

For CN(CCOc1ccc(CC2SC(=O)NC2=O)cc1)c1ccccn1 (centres unmarked) [Example 1, 5-{4-[2-(methylpyrid-2-ylamino)ethoxy]-benzyl}thiazolidine-2,4-dione], which “Mean RI (sebaceous gland size)” value ([1]; Study 1, 0.1% topical) is on record?
The value was 0.73.

And the “Mean RI (sebaceous gland size)” value ([1]; Study 1, 0.3% topical)?
The value was 0.55.

And the “Mean RI (sebaceous gland size)” value ([1]; Study 1, 1% topical)?
Its value is 0.51.

And the “Mean RI (sebaceous gland size)” value ([1]; Study 2, 0.1% topical)?
The value was 0.83.

With COCCOCOc1ccc2cc(C(=O)N(C)Cc3cccc(-c4ccc(CC5SC(=O)NC5=O)cc4)c3)ccc2c1 (centres unmarked) [Example 2, N-methyl-N-[4′-(2,4-dioxothiazolidin-5-yl-methyl)biphenyl-3-ylmethyl]-6-(2-methoxyethoxymethoxy)-naphthalene-2-carboxamide] as the compound, how does the “Mean RI (sebaceous gland size)” value ([1]; Study 2, 0.003% topical) read?
Its value is 0.82.

What about the “Mean RI (sebaceous gland size)” value ([1]; Study 2, 0.03% topical) of the same compound?
Its value is 0.75.

And the “Mean RI (sebaceous gland size)” value ([1]; Study 2, 0.3% topical)?
Its value is 0.65.

And the “Mean RI (sebaceous gland size)” value ([1]; Study 3, 0.3% topical)?
The value was 0.66.

And the “Mean RI (sebaceous gland size)” value ([1]; Study 4, 0.3% topical)?
Its value is 0.67.

What about the Kd [2] of the same compound?
The Kd was 0.5 nM.

Which results are given for CCCCCCCNC(=O)N(C)c1cccc(-c2ccc(C[C@H](Nc3ccccc3C(=O)c3ccccc3)C(=O)O)cc2)c1 [Example 3, (S)-3-[3′-(3-heptyl-1-methylureido)biphenyl4-yl]-2-[2-(1-phenylmethanoyl)phenylamino]-propionic acid]?
Mean RI (sebaceous gland size) ([1]; Study 3, 0.01% topical): 1.02; Mean RI (sebaceous gland size) ([1]; Study 3, 0.1% topical): 0.84; Mean RI (sebaceous gland size) ([1]; Study 3, 1% topical): 0.74; Kd [3]: 250 nM; Kd [2]: 15 nM

With CCCOc1ccc2cc(C(=O)N(C)Cc3cccc(-c4ccc(CC5SC(=O)NC5=O)cc4)c3)ccc2c1 (centres unmarked) [Example 4, N-methyl-N-[4′-(2,4-dioxothiazolidin-5-yl-methyl)biphenyl-3-ylmethyl)-6-propoxynaphthalene-2-carboxamide] as the compound, how does the Kd [2] read?
The Kd was 1 nM.

For CCCCCCCC(=O)N(C)Cc1cccc(-c2ccc(C[C@H](OCC)C(=O)O)cc2)c1 [Example 5, (S)-2-ethoxy-3-{3′-[(methyloctanoylamino)methyl]biphenyl-4-yl}propionic acid], which Kd [4] is on record?
The Kd was 500 nM.

What about the Kd [3] of the same compound?
The Kd was 4000 nM.

What about the Kd [2] of the same compound?
Its Kd is 2 nM.

Which Kd [2] does the source give for COCCOCOc1ccc2cc(C(=O)N(C)Cc3cccc(-c4ccc(Nc5ccccc5C(=O)O)cc4)c3)ccc2c1 [Example 6, 2-{3′-[({1-[6-(2-methoxyethoxymethoxy)-naphthalen-2-yl]methanoyl}methylamino)methyl]biphenyl-4-ylamino}benzoic acid] here?
Its Kd is 30 nM.

With CN(C)c1ccc(NC(=O)N(C)c2cccc(-c3ccc(C[C@H](Nc4ccccc4C(=O)c4ccccc4)C(=O)O)cc3)c2)cc1 [Example 7, (S)-3-{3′-[3(4-dimethylaminophenyl)-1-methylureido]biphenyl-4-yl}-2-[2-(1-phenylmethanoyl)-phenylamino]propionic acid] as the compound, how does the Kd [3] read?
The Kd was 4000 nM.

And the Kd [2]?
The Kd was 8 nM.

How did the “Mean RI (sebaceous gland size)” value ([1]; Study 4, 0.01% topical) turn out when CCCc1nnc([C@H](Cc2ccc(OCCc3nc(-c4ccccc4)oc3C)cc2)Nc2ccccc2C(=O)c2ccccc2)o1 [Negative Control, 1-{2-[(S)-2-{4-[2-(5-methyl-2-phenyloxazol-4-yl)ethoxy]phenyl}-1-(5-propyl[1,3,4]oxadiazol-2-yl)ethylamino]phenyl}-1-phenylmethanone, reference compound] was run?
The value was 1.12.

And the “Mean RI (sebaceous gland size)” value ([1]; Study 4, 0.1% topical)?
Its value is 1.08.

And the “Mean RI (sebaceous gland size)” value ([1]; Study 4, 1% topical)?
The value was 1.08.

How did the “Mean RI (sebaceous gland size)” value ([1]; Study 1, 0.3% topical) turn out when C[C@]12CCC(=O)CC1CCC1C2CC[C@@]2(C)C1CC[C@@H]2O (stereo partly drawn) [Positive Control, 5a-androstan-17β-ol-3-one, reference compound] was run?
Its value is 1.73.
